Measurements: US20230085307A1, “PYRIDAZINONE COMPOUND AND HERBICIDE” (NISSAN CHEMICAL CORPORATION, priority 2019, published 2023)

Key:
late watergrass = assay: Test Example 1: herbicidal activity, application before weed generation under submerged conditions (Table 16, symbol A); assay type: in vivo, late watergrass (Echinochloa oryzicola)
Text: (§1) [Test Example 1] Herbicidal Activity Test by Application before Weed Generation under Submerged Conditions After alluvial soil was placed into 1/10000 are of Wagner pot, water was poured and mixed to form a submerged condition having a water depth of 4 cm. Seeds of late watergrass, Japanese bulrush, and oval-leafed pondweed were sowed in a mixed manner in the aforementioned pot, and then 2.5 leaf stage rice plant seedlings were transplanted thereto. On the day of sowing seeds, the emulsion agent of the compound of the present invention prepared according to Formulation Example 2 was diluted with water so as to achieve a predetermined herbicide amount, and the diluted emulsion agent was applied to the surface of the water. The pot was placed in a greenhouse at 25° C. to 30° C. for growth of the plants. Three weeks after the herbicide application, the effect of the herbicide on each plant was evaluated according to the following criteria. Evaluation Criteria 5: Herbicidal rate of 90% or more (almost completely withered) 4: Herbicidal rate of 70% or more and less than 90% 3: Herbicidal rate of 40% or more and less than 70% 2: Herbicidal rate of 20% or more and less than 40% 1: Herbicidal rate of 5% or more and less than 20% 0: Herbicidal rate of 5% or less (almost no effect)

Japanese bulrush = assay: Test Example 1: herbicidal activity, application before weed generation under submerged conditions (Table 16, symbol B); assay type: in vivo, Japanese bulrush (Schoenoplectus juncoides)
Summary of the method: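 Submerged Wagner pots (alluvial soil, 4 cm water) sown with weed seeds and planted with 2.5-leaf rice seedlings; emulsifiable concentrate diluted in water applied to water surface on sowing day. Held in greenhouse at 25-30 °C; injury scored 0-5 by herbicidal rate after three weeks.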

oval-leafed pondweed = assay: Test Example 1: herbicidal activity, application before weed generation under submerged conditions (Table 16, symbol C); assay type: in vivo, oval-leafed pondweed (Monochoria vaginalis)
Text: as §1

barnyard grass [1] = assay: Test Example 3: herbicidal effect by foliage application, Wagner pot (Table 18, symbol H); assay type: in vivo, barnyard grass (Echinochloa crus-galli)
Summary of the method: (§2)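 Plants were sown in alluvial soil held under 0.1–0.5 cm standing water and grown 14 days in a greenhouse at 25–30 °C. An emulsifiable formulation, water-diluted to the set dose, was then sprayed onto the foliage, and effects were scored three weeks later using previously defined criteria.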

Chinese sprangletop = assay: Test Example 3: herbicidal effect by foliage application, Wagner pot (Table 18, symbol D); assay type: in vivo, chinese sprangletop (Leptochloa chinensis)
Summary of the method: as §2

rice flat sedge = assay: Test Example 3: herbicidal effect by foliage application, Wagner pot (Table 18, symbol E); assay type: in vivo, rice flat sedge (Cyperus iria)
Summary of the method: as §2

southern crabgrass [2] = assay: Test Example 4: herbicidal effect by soil treatment (Table 19, symbol F); assay type: in vivo, southern crabgrass (Digitaria ciliaris); conditions: amount of applied herbicide 320 g/ha
Summary of the method: (§3)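 Soil-surface application: an emulsion agent diluted with water to the predetermined dose is sprayed uniformly over seeds lying under roughly 1.5 cm of sterilized diluvial soil. Boxes stay in a greenhouse at 25° C. to 30° C. Three weeks later, each species is graded on previously defined criteria.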

green foxtail [3] = assay: Test Example 4: herbicidal effect by soil treatment (Table 19, symbol G); assay type: in vivo, green foxtail (Setaria viridis); conditions: amount of applied herbicide 320 g/ha
Summary of the method: as §3

barnyard grass [4] = assay: Test Example 4: herbicidal effect by soil treatment (Table 19, symbol H); assay type: in vivo, barnyard grass (Echinochloa crus-galli); conditions: amount of applied herbicide 320 g/ha
Summary of the method: as §3

velvetleaf [5] = assay: Test Example 4: herbicidal effect by soil treatment (Table 19, symbol M); assay type: in vivo, velvetleaf (Abutilon theophrasti); conditions: amount of applied herbicide 320 g/ha
Summary of the method: as §3

redroot pigweed = assay: Test Example 4: herbicidal effect by soil treatment (Table 19, symbol N); assay type: in vivo, redroot pigweed (Amaranthus retroflexus); conditions: amount of applied herbicide 320 g/ha
Summary of the method: as §3

lambsquarters [6] = assay: Test Example 4: herbicidal effect by soil treatment (Table 19, symbol O); assay type: in vivo, lambsquarters (Chenopodium album); conditions: amount of applied herbicide 320 g/ha
Summary of the method: as §3

southern crabgrass [7] = assay: Test Example 5: herbicidal effect by foliage application, plastic box (Table 20, symbol F); assay type: in vivo, southern crabgrass (Digitaria ciliaris); conditions: foliage application, 320 g/ha, three weeks after application
Summary of the method: (§4)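 Sow seeds spot-wise in sterilized diluvial soil; cover with ~1.5 cm soil. Grow 14 days in greenhouse, 25° C. to 30° C. Spray foliage with emulsion diluted to predetermined amount. Rate effect after 3 weeks.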

green foxtail [8] = assay: Test Example 5: herbicidal effect by foliage application, plastic box (Table 20, symbol G); assay type: in vivo, green foxtail (Setaria viridis); conditions: foliage application, 320 g/ha, three weeks after application
Summary of the method: as §4

barnyard grass [9] = assay: Test Example 5: herbicidal effect by foliage application, plastic box (Table 20, symbol H); assay type: in vivo, barnyard grass (Echinochloa crus-galli); conditions: foliage application, 320 g/ha, three weeks after application
Summary of the method: as §4

velvetleaf [10] = assay: Test Example 5: herbicidal effect by foliage application, plastic box (Table 20, symbol M); assay type: in vivo, velvetleaf (Abutilon theophrasti); conditions: foliage application, 320 g/ha, three weeks after application
Summary of the method: as §4

lambsquarters [11] = assay: Test Example 5: herbicidal effect by foliage application, plastic box (Table 20, symbol O); assay type: in vivo, lambsquarters (Chenopodium album); conditions: foliage application, 320 g/ha, three weeks after application
Summary of the method: as §4

[12] = amount of applied herbicide 246 g/ha
[13] = amount of applied herbicide 370 g/ha
[14] = amount of applied herbicide 320 g/ha

COc1cc(F)ccc1-c1sc2ccc(SC)cc2c1-c1c(O)c(C)nn(C)c1=O [2-376]
Herbicidal effect on A: late watergrass (grade 0-5) (late watergrass; 246 g/ha applied herbicide): 3 (Herbicidal rate of 40% or more and less than 70%)
Herbicidal effect on B: Japanese bulrush (grade 0-5) (Japanese bulrush; 246 g/ha applied herbicide): 0 (Herbicidal rate of 5% or less (almost no effect))
Herbicidal effect on C: oval-leafed pondweed (grade 0-5) (oval-leafed pondweed; 246 g/ha applied herbicide): 0 (Herbicidal rate of 5% or less (almost no effect))
herbicidal effect on H: barnyard grass (barnyard grass [1]; [12]): 5 (Herbicidal rate of 90% or more (almost completely withered))
herbicidal effect on D: Chinese sprangletop (Chinese sprangletop; [12]): 3 (Herbicidal rate of 40% or more and less than 70%)
herbicidal effect on E: rice flat sedge (rice flat sedge; [12]): 3 (Herbicidal rate of 40% or more and less than 70%)

CCCC(=O)Oc1c(C)nn(C)c(=O)c1-c1c(-c2ccccc2OCC)sc2cc(OC)c(-c3ccccc3OCC)cc12 [5-080]
Herbicidal effect, A: late watergrass (late watergrass; [13]): 0 (Herbicidal rate of 5% or less (almost no effect))
Herbicidal effect, B: Japanese bulrush (Japanese bulrush; [13]): 3 (Herbicidal rate of 40% or more and less than 70%)
Herbicidal effect, C: oval-leafed pondweed (oval-leafed pondweed; [13]): 0 (Herbicidal rate of 5% or less (almost no effect))
herbicidal effect on barnyard grass (H) (barnyard grass [1]; 370 g/ha): 3 (Herbicidal rate of 40% or more and less than 70%)
herbicidal effect on Chinese sprangletop (D) (Chinese sprangletop; 370 g/ha): 3 (Herbicidal rate of 40% or more and less than 70%)
herbicidal effect on rice flat sedge (E) (rice flat sedge; 370 g/ha): 2 (Herbicidal rate of 20% or more and less than 40%)

Cc1nn(C)c(=O)c(-c2c(-c3ccc(Cl)cc3)sc3cc(F)c(F)cc23)c1OCc1ccccc1 [5-083]
Herbicidal effect, A: late watergrass (late watergrass; [14]): 0 (Herbicidal rate of 5% or less (almost no effect))
Herbicidal effect, B: Japanese bulrush (Japanese bulrush; [14]): 3 (Herbicidal rate of 40% or more and less than 70%)
Herbicidal effect, C: oval-leafed pondweed (oval-leafed pondweed; [14]): 0 (Herbicidal rate of 5% or less (almost no effect))
herbicidal effect on barnyard grass (H) (barnyard grass [1]; 320 g/ha): 1 (Herbicidal rate of 5% or more and less than 20%)
herbicidal effect on Chinese sprangletop (D) (Chinese sprangletop; 320 g/ha): 0 (Herbicidal rate of 5% or less (almost no effect))
herbicidal effect on rice flat sedge (E) (rice flat sedge; 320 g/ha): 2 (Herbicidal rate of 20% or more and less than 40%)

Cc1nn(C)c(=O)c(-c2c(-c3ccc(OC(F)(F)F)cc3)sc3cc(F)c(F)cc23)c1O [5-105]
Herbicidal effect, A: late watergrass (late watergrass; [14]): 2 (Herbicidal rate of 20% or more and less than 40%)
Herbicidal effect, B: Japanese bulrush (Japanese bulrush; [14]): 0 (Herbicidal rate of 5% or less (almost no effect))
Herbicidal effect, C: oval-leafed pondweed (oval-leafed pondweed; [14]): 0 (Herbicidal rate of 5% or less (almost no effect))
herbicidal effect on barnyard grass (H) (barnyard grass [1]; 320 g/ha): 5 (Herbicidal rate of 90% or more (almost completely withered))
herbicidal effect on Chinese sprangletop (D) (Chinese sprangletop; 320 g/ha): 0 (Herbicidal rate of 5% or less (almost no effect))
herbicidal effect on rice flat sedge (E) (rice flat sedge; 320 g/ha): 0 (Herbicidal rate of 5% or less (almost no effect))
F: southern crabgrass, herbicidal effect grade (southern crabgrass [2]): 0 (Herbicidal rate of 5% or less (almost no effect))
G: green foxtail, herbicidal effect grade (green foxtail [3]): 0 (Herbicidal rate of 5% or less (almost no effect))
H: barnyard grass, herbicidal effect grade (barnyard grass [4]): 0 (Herbicidal rate of 5% or less (almost no effect))
M: velvetleaf, herbicidal effect grade (velvetleaf [5]): 2 (Herbicidal rate of 20% or more and less than 40%)
N: redroot pigweed, herbicidal effect grade (redroot pigweed): 3 (Herbicidal rate of 40% or more and less than 70%)
O: lambsquarters, herbicidal effect grade (lambsquarters [6]): 4 (Herbicidal rate of 70% or more and less than 90%)
herbicidal effect on southern crabgrass (F) (southern crabgrass [7]): 4 (Herbicidal rate of 70% or more and less than 90%)
herbicidal effect on green foxtail (G) (green foxtail [8]): 5 (Herbicidal rate of 90% or more (almost completely withered))
herbicidal effect on barnyard grass (H) (barnyard grass [9]): 5 (Herbicidal rate of 90% or more (almost completely withered))
herbicidal effect on velvetleaf (M) (velvetleaf [10]): 4 (Herbicidal rate of 70% or more and less than 90%)
herbicidal effect on lambsquarters (O) (lambsquarters [11]): 5 (Herbicidal rate of 90% or more (almost completely withered))
